The assay concerns the target T1, full length human recombinant glucocorticoid receptor (Homo sapiens, UniProt P04150).
T1 construct: It contains some partially purified full length human recombinant glucocorticoid receptor; purchased Panvera/Invitrogen PV4302
T1 sequence (P04150 1-777): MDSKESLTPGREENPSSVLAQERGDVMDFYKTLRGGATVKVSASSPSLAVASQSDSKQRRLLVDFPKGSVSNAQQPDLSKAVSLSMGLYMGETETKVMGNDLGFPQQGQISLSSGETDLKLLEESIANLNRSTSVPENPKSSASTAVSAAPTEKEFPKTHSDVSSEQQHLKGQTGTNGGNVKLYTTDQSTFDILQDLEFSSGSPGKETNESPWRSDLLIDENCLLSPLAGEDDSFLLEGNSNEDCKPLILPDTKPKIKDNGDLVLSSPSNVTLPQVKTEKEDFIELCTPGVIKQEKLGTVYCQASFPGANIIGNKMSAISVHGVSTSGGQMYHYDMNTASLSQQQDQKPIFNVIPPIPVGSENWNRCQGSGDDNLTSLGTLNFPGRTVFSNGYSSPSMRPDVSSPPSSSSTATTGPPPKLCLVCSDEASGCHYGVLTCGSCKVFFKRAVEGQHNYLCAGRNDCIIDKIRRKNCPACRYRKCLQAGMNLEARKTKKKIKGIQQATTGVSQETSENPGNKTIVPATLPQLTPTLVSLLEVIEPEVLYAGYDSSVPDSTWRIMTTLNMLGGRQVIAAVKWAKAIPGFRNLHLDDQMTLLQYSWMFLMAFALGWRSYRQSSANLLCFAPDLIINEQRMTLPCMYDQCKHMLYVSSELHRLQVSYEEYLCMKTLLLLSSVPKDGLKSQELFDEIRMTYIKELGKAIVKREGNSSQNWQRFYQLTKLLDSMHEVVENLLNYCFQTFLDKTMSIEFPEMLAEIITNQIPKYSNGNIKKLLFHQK
As to the kind of experiment: Glucocorticoid Receptor Binding Assay (Glucocorticoid Receptor Competitor Assay far red kit, fluorescence polarization). The settings on record: competition with fluorescent GR ligand Fluormone GS Far Red, 3 hours at 22° C., pH 7.4; Ki calculated from IC50 by Cheng-Prusoff. The procedure, abridged:
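Fluorescence polarization competition with partially purified full-length human recombinant GR, stabilizing peptide and Fluormone GS Far Red tracer in screening buffer pH 7.4; 3 hours at 22° C in the dark, read at 610–660 nm. IC50 from sigmoidal fit; Ki by Cheng-Prusoff.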

Take `C[C@H](c1ccc(Oc2ncc(C(=O)O)cc2Cl)cc1Cl)[C@@](O)(c1ccc(C#N)cc1)C(F)(F)F` (relative stereo) [Example 155, 5-Chloro-6-{3-chloro-4-[2-(4-cyano-phenyl)-3,3,3-trifluoro-2-hydroxy-1-methyl-propyl]-phenoxy}-nicotinic acid]: the inhibitory constant (Ki) (in general, a measure of affinity in units of concentration, obtained from inhibition or displacement) is 8.9 nM.
With `C[C@H](c1ccc(Oc2ccc(C(=O)O)c(Cl)n2)cc1Cl)[C@@](O)(c1ccc2c(c1)OCC(=O)N2C)C(F)(F)F` (relative stereo) [Example 158, 2-Chloro-6-{3-chloro-4-[3,3,3-trifluoro-2-hydroxy-1-methyl-2-(4-methyl-3-oxo-3,4-dihydro-2H-benzo[1,4]oxazin-7-yl)-propyl]-phenoxy}-nicotinic acid] the figure was 2.2 nM; with `C[C@@H](c1ccc(Oc2ccc(C(=O)O)c(Cl)n2)cc1Cl)[C@](O)(c1ccc2c(c1)N(C)S(=O)(=O)N2C)C(F)(F)F` (relative stereo) [Example 159, 2-Chloro-6-{3-chloro-4-[2-(1,3-dimethyl-2,2-dioxo-2,3-dihydro-1H-2λ6-benzo[1,2,5]thiadiazol-5-yl)-3,3,3-trifluoro-2-hydroxy-1-methyl-propyl]-phenoxy}-nicotinic acid], 2.1 nM; with `C[C@H](c1ccc(Oc2ccc(C(=O)O)c(Cl)c2)cc1Cl)[C@@](O)(c1ccc2c(c1)OCC(=O)N2C)C(F)(F)F` (relative stereo) [Example 160, 2-Chloro-4-{3-chloro-4-[3,3,3-trifluoro-2-hydroxy-1-methyl-2-(4-methyl-3-oxo-3,4-dihydro-2H-benzo[1,4]oxazin-7-yl)-propyl]-phenoxy}-benzoic acid], 1.3 nM.
Take `C[C@@H](c1ccc(Oc2ccc(C(=O)O)c(Cl)c2)cc1Cl)[C@](O)(c1ccc2c(c1)N(C)S(=O)(=O)N2C)C(F)(F)F` (relative stereo) [Example 161, 2-Chloro-4-{3-chloro-4-[2-(1,3-dimethyl-2,2-dioxo-2,3-dihydro-1H-2λ6-benzo[1,2,5]thiadiazol-5-yl)-3,3,3-trifluoro-2-hydroxy-1-methyl-propyl]-phenoxy}-benzoic acid]: the Ki was 3.6 nM.
The same measure for `C[C@@H](c1ccc(-c2ccc(F)c(C(=O)O)c2)cc1Cl)[C@](O)(c1ccc2c(c1)N(C)S(=O)(=O)N2C)C(F)(F)F` (relative stereo) [Example 162, 3′Chloro-4′-[2-(1,3-dimethyl-2,2-dioxo-2,3-dihydro-1H-2λ6-benzo[1,2,5]thiadiazol-5-yl)-3,3,3-trifluoro-2-hydroxy-1-methyl-propyl]-4-fluoro-biphenyl-3-carboxylic acid]: 10.8 nM.
`C[C@@H](c1ccc(-c2ccc(C(=O)O)c(F)c2)cc1Cl)[C@](O)(c1ccc2c(c1)N(C)S(=O)(=O)N2C)C(F)(F)F` (relative stereo) [Example 163, 3′-Chloro-4′-[2-(1,3-dimethyl-2,2-dioxo-2,3-dihydro-1H-2λ6-benzo[1,2,5]thiadiazol-5-yl)-3,3,3-trifluoro-2-hydroxy-1-methyl-propyl]-3-fluoro-biphenyl-4-carboxylic acid]: the Ki was 35.1 nM.
The same measure for `C[C@H](c1ccc(Oc2ccc(F)c(C(=O)O)c2)cc1Cl)[C@@](O)(c1ccc2c(c1)OCC(=O)N2C)C(F)(F)F` (relative stereo) [Example 167, 5-{3-Chloro-4-[3,3,3-trifluoro-2-hydroxy-1-methyl-2-(4-methyl-3-oxo-3,4-dihydro-2H-benzo[1,4]oxazin-7-yl)-propyl]phenoxy}-2-fluoro-benzoic acid]: 3.1 nM.
The same measure for `C[C@H](c1ccc(-c2ccc(C(=O)O)c(F)c2)cc1Cl)[C@@](O)(c1ccc2c(c1)N(C)C(=O)C(C)(C)O2)C(F)(F)F` (relative stereo) [Example 168, 3′-Chloro-3-fluoro-4′-[3,3,3-trifluoro-2-hydroxy-1-methyl-2-(2,2,4-trimethyl-3-oxo-3,4-dihydro-2H-benzo[1,4]oxazin-6-yl)-propyl]-biphenyl-4-carboxylic acid]: 609 nM; for `C[C@H](c1ccc(Oc2ccc(C(=O)O)cn2)cc1Cl)[C@@](O)(c1ccc2c(c1)OCC(=O)N2C)C(F)(F)F` (relative stereo) [Example 169, 6-{3-Chloro-4-[3,3,3-trifluoro-2-hydroxy-1-methyl-2-(4-methyl-3-oxo-3,4-dihydro-2H-benzo[1,4]oxazin-7-yl)-propyl]-phenoxy}-nicotinic acid]: 28.2 nM.
With `C[C@H](c1ccc(O)cc1Cl)[C@@](O)(c1ccc2oc(=O)n(C)c2c1)C(F)(F)F` (relative stereo) [Example 172, 5-[2-(2-Chloro-4-hydroxy-phenyl)-1-hydroxy-1-trifluoromethyl-propyl]-3-methyl-3H-benzooxazol-2-one] the figure was 0.6 nM; with `C[C@H](c1ccc(Oc2ccc(C(=O)O)c(Cl)c2)cc1Cl)[C@@](O)(c1ccc2oc(=O)n(C)c2c1)C(F)(F)F` (relative stereo) [Example 173, 2-Chloro-4-{3-chloro-4-[3,3,3-trifluoro-2-hydroxy-1-methyl-2-(3-methyl-2-oxo-2,3-dihydro-benzooxazol-5-yl)-propyl]-phenoxy}-benzoic acid], 1.1 nM; with `COC(=O)c1ccc(Oc2ccc([C@@H](C)[C@@](O)(c3ccc4oc(=O)n(C)c4c3)C(F)(F)F)c(Cl)c2)nc1` (relative stereo) [Example 174, 6-{3-Chloro-4-[3,3,3-trifluoro-2-hydroxy-1-methyl-2-(3-methyl-2-oxo-2,3-dihydro-benzooxazol-5-yl)-propyl]-phenoxy}-nicotinic acid methyl ester], 2 nM.
On to `COC(=O)c1cnc(Oc2ccc([C@@H](C)[C@@](O)(c3ccc4oc(=O)n(C)c4c3)C(F)(F)F)c(Cl)c2)c(Cl)c1` (relative stereo) [Example 175, 5-Chloro-6-{3-chloro-4-[3,3,3-trifluoro-2-hydroxy-1-methyl-2-(3-methyl-2-oxo-2,3-dihydro-benzooxazol-5-yl)-propyl]-phenoxy}-nicotinic acid methyl ester], for which the Ki is 1.8 nM.
In the case of `COC(=O)c1ccc(Oc2ccc([C@@H](C)[C@@](O)(c3ccc4oc(=O)n(C)c4c3)C(F)(F)F)c(Cl)c2)cc1F` (relative stereo) [Example 176, 4-{3-Chloro-4-[3,3,3-trifluoro-2-hydroxy-1-methyl-2-(3-methyl-2-oxo-2,3-dihydro-benzooxazol-5-yl)-propyl]-phenoxy}-2-fluoro-benzoic acid methyl ester], the Ki was 1.7 nM.
Regarding `C[C@H](c1ccc(-c2ccc(F)c(C(=O)O)c2)cc1Cl)[C@@](O)(c1ccc2c(c1)oc(=O)n2C)C(F)(F)F` (relative stereo) [Example 178, 3′-Chloro-4-fluoro-4′-[3,3,3-trifluoro-2-hydroxy-1-methyl-2-(3-methyl-2-oxo-2,3-dihydro-benzooxazol-6-yl)-propyl]-biphenyl-3-carboxylic acid], the Ki is 114 nM.
For `COC(=O)c1cnc(Oc2ccc([C@@H](C)[C@@](O)(c3ccc4oc(=O)n(C)c4c3)C(F)(F)F)c(Cl)c2)cc1Cl` (relative stereo) [Example 183, 4-Chloro-6-{3-chloro-4-[3,3,3-trifluoro-2-hydroxy-1-methyl-2-(3-methyl-2-oxo-2,3-dihydro-benzooxazol-5-yl)-propyl]-phenoxy}-nicotinic acid methyl ester], the Ki is 3 nM.

These data come from patent publication US8450313B2, “2,3-diaryl- or heteroaryl-substituted 1,1,1-trifluoro-2-hydroxypropyl compounds” (Hoffmann-La Roche Inc., priority 2009, dated 2013).
